# pKi: −log10 of the molar value.
# Biological target: Prokineticin receptor 1 (Human, UniProt Q8TCW9)
# Test: Aequorin-Based Luminescent Assay
# Procedure: An aequorin-based luminescent assay for calcium mobilization was used to measure mobilization of intracellular Ca2+ (Bullock et al., Mol Pharmacol 65, 582-588, 2004). Chinese hamster ovary (CHO) cells stably expressing photoprotein aequorin and recombinant PKR1 or PKR2 were tested by this method. Briefly, the cells were charged in Opti-MEM (Invitrogen) containing 8 μM of coelenterazine cp at 37° C. for 2 hours. Cells were detached by brief trypsinization and maintained in Hank's Balanced Salt Solution (HBSS) plus 10 mM HEPES (pH7.5) and 0.1% BSA at about 5×10^5 cells/ml. Luminescence measurements were made using a Berthold luminometer.All compounds were diluted in HBSS plus 10 mM HEPES (pH7.5) and 0.1% BSA. To test the agonist activity, 100 μl of cells were injected into the tubes with 20 μl of compounds. For antagonist assays, 80 μl cells were incubated in the tubes with 20 μl different concentrations of antagonists at room temperature for 20 minutes, and then 100 μl of recombinant PK2 were injected. The IC50 obtained from the assays were then converted to Ki values using the formula: IC50/(1+[PK2]/EC50PK2).
# Prokineticin receptor 1, sequence (Q8TCW9 whole entry): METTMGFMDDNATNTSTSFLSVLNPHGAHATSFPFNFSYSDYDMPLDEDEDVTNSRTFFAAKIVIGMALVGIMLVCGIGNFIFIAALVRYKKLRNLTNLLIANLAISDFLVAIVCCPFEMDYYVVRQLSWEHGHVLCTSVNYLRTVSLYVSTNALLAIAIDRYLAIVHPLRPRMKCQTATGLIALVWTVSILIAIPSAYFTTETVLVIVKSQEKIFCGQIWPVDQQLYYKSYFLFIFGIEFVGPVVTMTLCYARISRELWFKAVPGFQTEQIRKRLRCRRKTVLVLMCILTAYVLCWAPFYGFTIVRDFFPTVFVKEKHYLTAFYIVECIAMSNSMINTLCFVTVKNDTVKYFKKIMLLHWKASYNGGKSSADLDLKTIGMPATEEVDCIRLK
row,SMILES,pKi
1,"COc1cc(F)cc(CN2CCC(C(=O)N(Cc3cc(Cl)c4c(c3)OCCCO4)CC(C)C)C2)c1 (configuration not stated) [US10780095, Structure TABLE 1.16]",6.43
2,"COc1cc(F)cc(CN2CCC(C(=O)N(Cc3cc(Cl)c4c(c3)OCCCO4)CC(C)C)C2)c1 (configuration not stated) [US10780095, Structure TABLE 1.18]",7.38
